Assay results as given in patent publication US20100184683A1, “ANTIBACTERIAL AND ANTIFUNGAL PEPTIDES” (C3 JIAN, INC., priority 2009, published 2010).
≈ marks a conversion by molar mass, not a printed value. Where two headings read alike, the source gives them in different places. Peptide text beside a SMILES is read from it.

Tests used:
A. niger = type: cell-based, Aspergillus niger
Procedure: (§1) In certain embodiments the MIC assays are performed as described herein in the Examples. For each organism, the media and growth conditions utilized is detailed in Table 8.
(§2) In certain embodiments the MIC assays are performed as follows: For each organism, the media and growth conditions utilized is detailed in Table 8.

B. subtilis = type: cell-based, Bacillus subtilis
Procedure: as §1, §2

Candida albicans = experiment: Binding of targeting peptides to Candida albicans; details: tested at 3.13, 6.25, 12.5 and 25.0 μM in 1× PBS or HEPES/NaCl/MgCl2/0.1% CTAB
Procedure: The peptides in Table 6 were tested for binding efficiency at 3.13, 6.25, 12.5 and 25.0 μM concentrations in 1× phosphate-buffered saline or 20 mM HEPES (4-(2-hydroxyethyl)-1-piperazineethanesulfonic acid), 150 mM sodium chloride, 1 mM magnesium chloride and 0.1% CTAB.

MRSA = type: cell-based, Methicillin-resistant Staphylococcus aureus
Procedure: as §1, §2

T. rubrum = type: cell-based, Trichophyton rubrum
Procedure: as §1, §2

S. epidermidis = type: cell-based
Procedure: as §1, §2

S. pneumoniae = type: cell-based, Streptococcus pneumoniae
Procedure: as §1, §2

[1] = A. niger, Potato Dextrose Agar, 25° C., aerobic, inoculum 10^5 CFU/ml, 18-24 h or 48 h

**Q.** Which MIC (A. niger) does the source give for CSCC[C@H](NC(=O)[C@H](CCCNC(=N)N)NC(=O)[C@H](CCCNC(=N)N)NC(=O)[C@H](CC(C)C)NC(=O)[C@H](CCCNC(=N)N)NC(=O)[C@H](CCC(=O)O)NC(=O)[C@@H](NC(=O)[C@H](CS)NC(=O)CNC(=O)[C@H](CCCNC(=N)N)NC(=O)[C@@H](N)CCCNC(=N)N)[C@@H](C)O)C(=O)N[C@@H](C)C(=O)N[C@@H](CCCNC(=N)N)C(=O)N[C@@H](CCCNC(=N)N)C(=O)N[C@@H](CC(N)=O)C(=O)N[C@@H](C)C(=O)N[C@@H](Cc1c[nH]c2ccccc12)C(=O)N[C@@H](CC(=O)O)C(=O)N[C@@H](CC(C)C)C(=O)N[C@@H](Cc1ccc(O)cc1)C(=O)N[C@@H](C)C(=O)N[C@@H](CCC(=O)O)C(=O)N[C@@H](Cc1c[nH]cn1)C(=O)N[C@@H](Cc1ccccc1)C(=O)N[C@@H](Cc1ccc(O)cc1)C(=O)O [PF-148] (H-RRGCTERLRRMARRNAWDLYAEHFY-OH; N-terminus and C-terminus assumed) here?
**A.** 50 µM (≈ 161 µg/mL)

**Q.** And the MIC (B. subtilis)?
**A.** 50 µM (≈ 161 µg/mL)

**Q.** How did the MIC (A. niger) turn out when CC[C@H](C)[C@H](NC(=O)[C@H](C)NC(=O)[C@@H]1CCCN1C(=O)[C@H](Cc1ccccc1)NC(=O)[C@@H]1CCCN1C(=O)[C@H](CC(C)C)NC(=O)[C@@H](N)C(C)C)C(=O)N1CCC[C@H]1C(=O)N[C@@H](CC(C)C)C(=O)N[C@@H](CO)C(=O)N[C@@H](CCCNC(=N)N)C(=O)N[C@@H](CCCNC(=N)N)C(=O)N[C@@H](CCCNC(=N)N)C(=O)N[C@@H](C)C(=O)N[C@@H](CS)C(=O)N[C@H](C(=O)N[C@@H](C)C(=O)N[C@@H](C)C(=O)N1CCC[C@H]1C(=O)N[C@@H](CCCNC(=N)N)C(=O)N1CCC[C@H]1C(=O)N[C@@H](CCCNC(=N)N)C(=O)N[C@@H](CO)C(=O)N[C@@H](CCCNC(=N)N)C(=O)N[C@@H](CCC(N)=O)C(=O)N[C@@H](CCCNC(=N)N)C(=O)N[C@@H](C)C(=O)N[C@@H](CO)C(=O)O)C(C)C [PF-168] (H-VLPFPAIPLSRRRACVAAPRPRSRQRAS-OH; N-terminus and C-terminus assumed) was run?
**A.** 50 µM (≈ 156 µg/mL)

**Q.** What about the “Target(s): form of Candida albicans bound” value (Candida albicans) of the same compound?
**A.** yeast cells

**Q.** What about the MIC (MRSA) of the same compound?
**A.** 50 µM (≈ 156 µg/mL)

**Q.** What about the MIC (T. rubrum) of the same compound?
**A.** 50 µM (≈ 156 µg/mL)

**Q.** For CC(C)[C@H](NC(=O)[C@H](C)NC(=O)[C@H](Cc1ccc(O)cc1)NC(=O)[C@@H](N)CC(N)=O)C(=O)N[C@H](C(=O)N[C@@H](CO)C(=O)N[C@@H](Cc1c[nH]cn1)C(=O)N[C@H](C(=O)O)[C@@H](C)O)C(C)C [PF-209] (H-NYAVVSHT-OH; N-terminus and C-terminus assumed), which MIC (MRSA) is on record?
**A.** 50 µM (≈ 44.5 µg/mL)

**Q.** CC[C@H](C)[C@H](NC(=O)[C@H](CO)NC(=O)[C@H](CC(N)=O)NC(=O)[C@H](CCCNC(=N)N)NC(=O)[C@H](CC(N)=O)NC(=O)[C@H](CC(C)C)NC(=O)[C@H](CCCCN)NC(=O)[C@H](CCCCN)NC(=O)[C@H](CCCCN)NC(=O)[C@@H](NC(=O)[C@@H]1CCCN1C(=O)[C@H](CO)NC(=O)[C@H](CCCNC(=N)N)NC(=O)[C@@H](NC(=O)[C@H](CCCNC(=N)N)NC(=O)[C@@H](NC(=O)[C@@H](N)CCSC)[C@@H](C)CC)[C@@H](C)CC)[C@@H](C)O)C(=O)N[C@@H](CO)C(=O)N[C@@H](CC(=O)O)C(=O)N[C@@H](Cc1c[nH]c2ccccc12)C(=O)N[C@@H](CCCCN)C(=O)N[C@@H](CO)C(=O)N[C@@H](CC(N)=O)C(=O)N[C@H](C(=O)N[C@@H](CO)C(=O)NCC(=O)N[C@@H](CCCNC(=N)N)C(=O)N[C@@H](Cc1ccccc1)C(=O)N[C@@H](Cc1ccccc1)C(=O)N[C@@H](Cc1ccc(O)cc1)C(=O)O)[C@@H](C)O [PF-283] (H-MIRIRSPTKKKLNRNSISDWKSNTSGRFFY-OH; N-terminus and C-terminus assumed) was tested. Which MIC (B. subtilis) did it give?
**A.** 50 µM (≈ 182 µg/mL)

**Q.** And the MIC (T. rubrum)?
**A.** 50 µM (≈ 182 µg/mL)

**Q.** And the MIC (S. epidermidis)?
**A.** 50 µM (≈ 182 µg/mL)

**Q.** How did the MIC (B. subtilis) turn out when CC[C@H](C)[C@H](NC(=O)CN)C(=O)N[C@H](C(=O)N[C@@H](CC(C)C)C(=O)N[C@H](C(=O)NCC(=O)N[C@@H](CC(C)C)C(=O)N[C@@H](CCCCN)C(=O)N[C@@H](CC(C)C)C(=O)N[C@H](C(=O)N1CCC[C@H]1C(=O)N[C@@H](CC(C)C)C(=O)N[C@@H](CC(C)C)C(=O)N[C@@H](C)C(=O)N[C@@H](CC(N)=O)C(=O)N[C@H](C(=O)N[C@@H](CC(C)C)C(=O)N[C@@H](CCCNC(=N)N)C(=O)O)C(C)C)[C@@H](C)CC)[C@@H](C)CC)C(C)C [PF-322] (H-GIVLIGLKLIPLLANVLR-OH; N-terminus and C-terminus assumed) was run?
**A.** 50 µM (≈ 95.8 µg/mL)

**Q.** For CC(C)C[C@H](NC(=O)[C@H](CCC(N)=O)NC(=O)[C@H](CO)NC(=O)[C@H](CCC(N)=O)NC(=O)[C@H](CC(C)C)NC(=O)[C@@H](N)CO)C(=O)NCC(=O)N1CCC[C@H]1C(=O)N[C@@H](CS)C(=O)N[C@@H](CC(C)C)C(=O)N[C@@H](Cc1c[nH]cn1)C(=O)N[C@@H](CC(=O)O)C(=O)N[C@@H](CCC(N)=O)C(=O)N[C@@H](CCCNC(=N)N)C(=O)N[C@@H](Cc1c[nH]cn1)C(=O)O [PF-448] (H-SLQSQLGPCLHDQRH-OH; N-terminus and C-terminus assumed), which MIC (S. pneumoniae) is on record?
**A.** 50 µM (≈ 85.9 µg/mL)

**Q.** What about the MIC (A. niger) of the same compound?
**A.** 25 µM (≈ 43 µg/mL)

**Q.** CC[C@H](C)[C@H](NC(=O)[C@H](Cc1ccccc1)NC(=O)[C@@H](NC(=O)[C@H](Cc1ccccc1)NC(=O)[C@H](CC(C)C)NC(=O)[C@H](CC(=O)O)NC(=O)[C@@H](NC(=O)[C@H](CS)NC(=O)[C@@H](NC(=O)[C@H](CCCNC(=N)N)NC(=O)[C@H](CC(C)C)NC(=O)[C@@H](NC(=O)[C@@H](N)CC(C)C)C(C)C)[C@@H](C)CC)[C@@H](C)O)[C@@H](C)O)C(=O)N[C@@H](CCCCN)C(=O)N[C@@H](Cc1c[nH]c2ccccc12)C(=O)N[C@H](C(=O)N[C@H](C(=O)N[C@@H](CCCCN)C(=O)N[C@@H](CCC(N)=O)C(=O)N[C@@H](CCCNC(=N)N)C(=O)N[C@@H](CCCCN)C(=O)N[C@@H](CO)C(=O)O)[C@@H](C)CC)[C@@H](C)O [PF-497] (H-LVLRICTDLFTFIKWTIKQRKS-OH; N-terminus and C-terminus assumed) was tested. Which MIC (B. subtilis) did it give?
**A.** 50 µM (≈ 136 µg/mL)

**Q.** How did the MIC (B. subtilis) turn out when CC[C@H](C)[C@H](NC(=O)[C@H](CCCNC(=N)N)NC(=O)[C@H](CCCCN)NC(=O)[C@H](CCCCN)NC(=O)[C@H](CCSC)NC(=O)[C@H](CO)NC(=O)[C@H](CC(C)C)NC(=O)[C@H](CC(C)C)NC(=O)[C@H](CCCCN)NC(=O)[C@H](CCCNC(=N)N)NC(=O)[C@@H](NC(=O)[C@@H](NC(=O)[C@@H](NC(=O)[C@H](CC(C)C)NC(=O)[C@@H](NC(=O)[C@H](Cc1ccc(O)cc1)NC(=O)[C@H](CC(C)C)NC(=O)[C@H](Cc1ccccc1)NC(=O)[C@H](CO)NC(=O)[C@H](Cc1ccc(O)cc1)NC(=O)[C@@H](N)C(C)C)C(C)C)C(C)C)[C@@H](C)CC)C(C)C)C(=O)N[C@@H](CCC(=O)O)C(=O)N[C@@H](CCCNC(=N)N)C(=O)N[C@@H](CC(C)C)C(=O)O [PF-499] (H-VYSFLYVLVIVRKLLSMKKRIERL-OH; N-terminus and C-terminus assumed) was run?
**A.** 50 µM (≈ 148 µg/mL)

**Q.** CC[C@H](C)[C@H](NC(=O)[C@H](CCC(N)=O)NC(=O)[C@H](CC(=O)O)NC(=O)[C@H](CO)NC(=O)[C@H](Cc1ccccc1)NC(=O)[C@@H](N)CCCCN)C(=O)N[C@@H](CC(=O)O)C(=O)N[C@@H](CCCCN)C(=O)NCC(=O)N[C@@H](CCC(N)=O)C(=O)N[C@@H](CC(=O)O)C(=O)N[C@@H](C)C(=O)N[C@@H](CC(C)C)C(=O)N[C@@H](CCCCN)C(=O)N[C@@H](CC(=O)O)C(=O)N[C@@H](CCCCN)C(=O)N[C@@H](CC(C)C)C(=O)NCC(=O)N[C@@H](CC(=O)O)C(=O)N[C@@H](CC(C)C)C(=O)O [PF-525] (H-KFSDQIDKGQDALKDKLGDL-OH; N-terminus and C-terminus assumed) was tested. Which MIC (S. pneumoniae) did it give?
**A.** 50 µM (≈ 112 µg/mL)

**Q.** And the MIC (A. niger)?
**A.** 50 µM (≈ 112 µg/mL)

**Q.** What does the source list for CC[C@H](C)[C@H](NC(=O)[C@H](CC(N)=O)NC(=O)[C@@H](NC(=O)[C@H](Cc1ccccc1)NC(=O)[C@H](CCC(=O)O)NC(=O)CNC(=O)[C@H](CCC(N)=O)NC(=O)[C@H](Cc1ccccc1)NC(=O)[C@@H](N)CCCCN)[C@@H](C)O)C(=O)NCC(=O)N[C@@H](CCC(N)=O)C(=O)N[C@@H](CO)C(=O)N[C@@H](Cc1ccc(O)cc1)C(=O)N[C@H](C(=O)N[C@H](C(=O)N[C@@H](CO)C(=O)N[C@@H](C)C(=O)N[C@@H](CO)C(=O)N[C@@H](Cc1c[nH]cn1)C(=O)N[C@@H](CCSC)C(=O)N[C@@H](CO)C(=O)N[C@H](C(=O)N[C@@H](CO)C(=O)N[C@@H](CC(C)C)C(=O)N[C@@H](CC(N)=O)C(=O)N[C@H](C(=O)NCC(=O)N[C@@H](CCCCN)C(=O)O)[C@@H](C)O)[C@@H](C)O)C(C)C)[C@@H](C)CC [PF-583] (H-KFQGEFTNIGQSYIVSASHMSTSLNTGK-OH; N-terminus and C-terminus assumed)?
**A.** Target(s): form of Candida albicans bound (Candida albicans): hyphae; MIC (MRSA): 50 µM (≈ 152 µg/mL); MIC (S. epidermidis): 50 µM (≈ 152 µg/mL)

**Q.** What does the source list for LSEMERRRLRKRA [PF-529]?
**A.** MIC (S. pneumoniae; S. pneumoniae, TSB supplemented with 5% yeast extract, 37° C., 10% CO2, inoculum 10^6 CFU/ml, 18-24 h or 48 h): 50 µM; MIC (A. niger; [1]): 50 µM

**Q.** Which results are given for RESKLIAMADMIRRRI [PF-545]?
**A.** MIC (A. niger; [1]): 50 µM; MIC (B. subtilis; B. subtilis, BHI, 30° C., aerobic, inoculum 10^5 CFU/ml, 18-24 h or 48 h): 25 µM; MIC (MRSA; MRSA, BHI supplemented with 2% glucose, 37° C., aerobic, inoculum 10^5 CFU/ml, 18-24 h or 48 h): 50 µM
